Reference: patent publication US12617779B2, “Self degradation-type CDK9 inhibitor prodrug and liposome encapsulating same” (Sumitomo Pharma Co., Ltd., priority 2021, dated 2026)

Assay: Evaluation of conversion rate to active form in buffer solution (Experimental Example 1)
Assay type: physicochemical
Conditions: for Stability in buffer solution at pH 5 / Conversion to Alvocidib at pH 5 within 3 hours: pH 5, 37° C.; for Stability in buffer solution at pH 5: up to 2 or 3 hours
Experimental: For Examples 1 to 16 and Comparative Examples 1 to 14, the attrition rate of the test compound and the conversion rate of the test compound to Alvocidib in a buffer solution were calculated by the following method.
Examples 1 to 16 and Comparative Examples 1 to 14 were each left in buffer solutions adjusted to pH 5.0, 5.5, 6.0, 6.5, 7.0 and 7.4, respectively, at a concentration of 25 umol/L at 37° C. After 0, 0.5, 1, 2 and 3 hours, the residual rates of the compounds of Examples […] and the production rate of Alvocidib were determined by HPLC.
The buffer solutions used at each pH are as follows. • pH 5.0: 50 mM citrate buffer solution (pH 5.0) • pH 5.5: 50 mM citrate buffer solution (pH 5.5) • pH 6.0: 50 mM phosphate buffer solution (pH 6.0) • pH 6.5: 50 mM phosphate buffer solution (pH 6.5) • pH 7.0: 50 mM phosphate buffer solution (pH 7.0) • pH 7.4: 50 mM phosphate buffer solution (pH 7.4)
The measurement conditions for HPLC are as follows.

[1] = pH5.0, 0 hr, 37° C., 25 umol/L in buffer solution
[2] = pH5.0, 0.5 hr, 37° C., 25 umol/L in buffer solution
[3] = pH5.0, 1 hr, 37° C., 25 umol/L in buffer solution
[4] = pH5.0, 2 hr, 37° C., 25 umol/L in buffer solution
[5] = pH5.0, 3 hr, 37° C., 25 umol/L in buffer solution
[6] = pH5.5, 0 hr, 37° C., 25 umol/L in buffer solution
[7] = pH5.5, 0.5 hr, 37° C., 25 umol/L in buffer solution
[8] = pH5.5, 1 hr, 37° C., 25 umol/L in buffer solution
[9] = pH5.5, 2 hr, 37° C., 25 umol/L in buffer solution
[10] = pH5.5, 3 hr, 37° C., 25 umol/L in buffer solution
[11] = pH6.0, 0 hr, 37° C., 25 umol/L in buffer solution
[12] = pH6.0, 0.5 hr, 37° C., 25 umol/L in buffer solution
[13] = pH6.0, 1 hr, 37° C., 25 umol/L in buffer solution
[14] = pH6.0, 2 hr, 37° C., 25 umol/L in buffer solution
[15] = pH6.0, 3 hr, 37° C., 25 umol/L in buffer solution
[16] = pH6.5, 0 hr, 37° C., 25 umol/L in buffer solution
[17] = pH6.5, 0.5 hr, 37° C., 25 umol/L in buffer solution
[18] = pH6.5, 1 hr, 37° C., 25 umol/L in buffer solution
[19] = pH6.5, 2 hr, 37° C., 25 umol/L in buffer solution
[20] = pH6.5, 3 hr, 37° C., 25 umol/L in buffer solution
[21] = pH7.0, 0 hr, 37° C., 25 umol/L in buffer solution
[22] = pH7.0, 0.5 hr, 37° C., 25 umol/L in buffer solution
[23] = pH7.0, 1 hr, 37° C., 25 umol/L in buffer solution
[24] = pH7.0, 2 hr, 37° C., 25 umol/L in buffer solution
[25] = pH7.0, 3 hr, 37° C., 25 umol/L in buffer solution
[26] = pH7.4, 0 hr, 37° C., 25 umol/L in buffer solution
[27] = pH7.4, 0.5 hr, 37° C., 25 umol/L in buffer solution
[28] = pH7.4, 1 hr, 37° C., 25 umol/L in buffer solution
[29] = pH7.4, 2 hr, 37° C., 25 umol/L in buffer solution
[30] = pH7.4, 3 hr, 37° C., 25 umol/L in buffer solution

## CCNC(=O)Oc1cc(O)c2c(=O)cc(-c3ccccc3Cl)oc2c1[C@H]1CCN(C)C[C@H]1O [Comparative Example 1, reference compound]
[1]
  Production rate of Alvocidib: 8.4%
  Residual rate: 91.6%
  Stability in buffer solution at pH 5: unstable
  Conversion to Alvocidib at pH 5 within 3 hours: mostly converted to Alvocidib
[2]
  Production rate of Alvocidib: 37.9%
  Residual rate: 62.1%
[3]
  Production rate of Alvocidib: 58.5%
  Residual rate: 41.5%
[4]
  Production rate of Alvocidib: 82.1%
  Residual rate: 17.9%
[5]
  Production rate of Alvocidib: 91.8%
  Residual rate: 8.2%
[6]
  Production rate of Alvocidib: 8.8%
  Residual rate: 91.2%
[7]
  Production rate of Alvocidib: 74.7%
  Residual rate: 25.3%
[8]
  Production rate of Alvocidib: 92.7%
  Residual rate: 7.3%
[9]
  Production rate of Alvocidib: 98.9%
  Residual rate: 1.1%
[10]
  Production rate of Alvocidib: 99.3%
  Residual rate: 0.7%
[11]
  Production rate of Alvocidib: 10.1%
  Residual rate: 89.9%
[12]
  Production rate of Alvocidib: 96.3%
  Residual rate: 3.7%
[13]
  Production rate of Alvocidib: 98.3%
  Residual rate: 1.5%
[14]
  Production rate of Alvocidib: 98.5%
  Residual rate: 1.3%
[15]
  Production rate of Alvocidib: 99.0%
  Residual rate: 1.0%
[16]
  Production rate of Alvocidib: 12.9%
  Residual rate: 87.1%
[17]
  Production rate of Alvocidib: 98.7%
  Residual rate: 1.3%
[18]
  Production rate of Alvocidib: 99.0%
  Residual rate: 1.0%
[19]
  Production rate of Alvocidib: 98.9%
  Residual rate: 1.1%
[20]
  Production rate of Alvocidib: 99.2%
  Residual rate: 0.8%
[21]
  Production rate of Alvocidib: 22.2%
  Residual rate: 77.8%
[22]
  Production rate of Alvocidib: 99.0%
  Residual rate: 1.0%
[23]
  Production rate of Alvocidib: 99.1%
  Residual rate: 0.9%
[24]
  Production rate of Alvocidib: 98.8%
  Residual rate: 1.0%
[25]
  Production rate of Alvocidib: 99.1%
  Residual rate: 0.9%
[26]
  Production rate of Alvocidib: 40.2%
  Residual rate: 59.8%
[27]
  Production rate of Alvocidib: 99.1%
  Residual rate: 0.9%
[28]
  Production rate of Alvocidib: 98.9%
  Residual rate: 1.1%
[29]
  Production rate of Alvocidib: 99.1%
  Residual rate: 1.0%
[30]
  Production rate of Alvocidib: 99.3%
  Residual rate: 0.7%

## CNC(=O)Oc1cc(O)c2c(=O)cc(-c3ccccc3Cl)oc2c1[C@H]1CCN(C)C[C@H]1O [Comparative Example 2, reference compound]
pH5.0, 0 hr
  Production rate of Alvocidib: 2.0%
  Residual rate: 96.6%
  Stability in buffer solution at pH 5: unstable
  Conversion to Alvocidib at pH 5 within 3 hours: mostly converted to Alvocidib
pH5.0, 0.5 hr
  Production rate of Alvocidib: 31.8%
  Residual rate: 66.9%
pH5.0, 1 hr
  Production rate of Alvocidib: 53.2%
  Residual rate: 45.1%
pH5.0, 2 hr
  Production rate of Alvocidib: 79.0%
  Residual rate: 19.3%
pH5.0, 3 hr
  Production rate of Alvocidib: 90.0%
  Residual rate: 8.5%
pH5.5, 0 hr
  Production rate of Alvocidib: 2.4%
  Residual rate: 96.4%
pH5.5, 0.5 hr
  Production rate of Alvocidib: 70.5%
  Residual rate: 28.0%
pH5.5, 1 hr
  Production rate of Alvocidib: 90.8%
  Residual rate: 7.5%
pH5.5, 2 hr
  Production rate of Alvocidib: 97.6%
  Residual rate: 0.6%
pH5.5, 3 hr
  Production rate of Alvocidib: 98.6%
  Residual rate: 0.0%
pH6.0, 0 hr
  Production rate of Alvocidib: 3.3%
  Residual rate: 95.1%
pH6.0, 0.5 hr
  Production rate of Alvocidib: 95.7%
  Residual rate: 2.5%
pH6.0, 1 hr
  Production rate of Alvocidib: 98.2%
  Residual rate: 0.0%
pH6.0, 2 hr
  Production rate of Alvocidib: 98.3%
  Residual rate: 0.0%
pH6.0, 3 hr
  Production rate of Alvocidib: 98.6%
  Residual rate: 0.0%
pH6.5, 0 hr
  Production rate of Alvocidib: 7.1%
  Residual rate: 91.5%
pH6.5, 0.5 hr
  Production rate of Alvocidib: 98.3%
  Residual rate: 0.0%
pH6.5, 1 hr
  Production rate of Alvocidib: 98.3%
  Residual rate: 0.0%
pH6.5, 2 hr
  Production rate of Alvocidib: 98.5%
  Residual rate: 0.0%
pH6.5, 3 hr
  Production rate of Alvocidib: 98.2%
  Residual rate: 0.0%
pH7.0, 0 hr
  Production rate of Alvocidib: 17.0%
  Residual rate: 81.8%
pH7.0, 0.5 hr
  Production rate of Alvocidib: 98.6%
  Residual rate: 0.0%
pH7.0, 1 hr
  Production rate of Alvocidib: 98.3%
  Residual rate: 0.0%
pH7.0, 2 hr
  Production rate of Alvocidib: 98.3%
  Residual rate: 0.0%
pH7.0, 3 hr
  Production rate of Alvocidib: 98.3%
  Residual rate: 0.0%
pH7.4, 0 hr
  Production rate of Alvocidib: 34.5%
  Residual rate: 63.9%
pH7.4, 0.5 hr
  Production rate of Alvocidib: 98.4%
  Residual rate: 0.0%
pH7.4, 1 hr
  Production rate of Alvocidib: 98.2%
  Residual rate: 0.0%
pH7.4, 2 hr
  Production rate of Alvocidib: 98.5%
  Residual rate: 0.0%
pH7.4, 3 hr
  Production rate of Alvocidib: 98.5%
  Residual rate: 0.0%
